≈ marks a conversion by molar mass, not a printed value.
How the values were obtained:
[1] = test system: 385 Escherichia coli and 126 Klebsiella pneumoniae isolates; assay: MIC, MIC50 and MIC90 by reference broth microdilution against 511 UTI/bloodstream isolates (USA and Europe 2014-2015); assay type: cell-based
CTX-M-15 Strain = assay: MIC of cephalosporins without and with CLV (Table 16); assay type: cell-based
[2] = test system: Enterobacter aerogenes isolates; assay: MIC of cephalosporins alone or with clavulanate/tazobactam; assay type: cell-based; details: Klebsiella aerogenes, clavulanate 2:1, tazobactam 4 μg/mL
CTX-M-15 = CTX-M-15 (Escherichia coli, UniProt Q9EXV5); assay type: biochemical
[3] = test system: Francisella tularensis ShuS4; assay: microbe, parasite or virus in culture; assay type: cell-based
[4] = test system: ESBL Klebsiella pneumoniae isolates; assay: MIC against isolates analyzed in time-kill experiments; assay type: cell-based
[5] = test system: ESBL Escherichia coli isolates; assay: Killing kinetics (time-kill); assay type: cell-based; details: 4X MIC of CTB+CLA
[6] = test system: Citrobacter freundii isolates; assay: MIC of cephalosporins alone or with clavulanate/tazobactam; assay type: cell-based; details: clavulanate 2:1, tazobactam 4 μg/mL
[7] = sub-saturating conditions, simulated from measured kinetic constants

CTX-M-15, sequence (Q9EXV5 entry or part of it): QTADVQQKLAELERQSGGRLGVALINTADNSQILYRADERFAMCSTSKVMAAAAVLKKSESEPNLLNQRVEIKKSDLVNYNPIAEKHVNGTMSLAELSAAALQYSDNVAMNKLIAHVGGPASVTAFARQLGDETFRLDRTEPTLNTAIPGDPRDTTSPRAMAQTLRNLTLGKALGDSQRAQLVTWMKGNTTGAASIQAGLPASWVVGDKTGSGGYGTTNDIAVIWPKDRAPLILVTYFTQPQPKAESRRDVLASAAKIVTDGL

## Nc1nc(/C(=C/CC(=O)O)C(=O)N[C@@H]2C(=O)N3C(C(=O)O)=CCS[C@H]23)cs1 [Ceftibuten, ceftibuten]
[1]; MIC 2 μg/mL, E. coli (385)
  cumulative % of isolates at MIC: (30.4) %
[1]; MIC 2 μg/mL, Isolates producing CTX-M Group 1 (276)
  cumulative % of isolates at MIC: (15.2) %
[1]; MIC 2 μg/mL, Isolates producing CTX-M Group 9 (92)
  cumulative % of isolates at MIC: (76.1) %
[1]; MIC 2 μg/mL, Isolates producing SHV ESBL (18)
  cumulative % of isolates at MIC: (61.1) %
[1]; MIC 2 μg/mL, K pneumoniae (126)
  cumulative % of isolates at MIC: (19.0) %
[1]; MIC 4 μg/mL, All CTX-M-producing E. coli (294)
  cumulative % of isolates at MIC: (45.6) %
[1]; MIC 4 μg/mL, All CTX-M-producing K pneumoniae (71)
  cumulative % of isolates at MIC: (32.4) %
[1]; MIC 4 μg/mL, All CTX-M-producing isolates (365)
  cumulative % of isolates at MIC: (43.0) %
[1]; MIC 4 μg/mL, E. coli (385)
  cumulative % of isolates at MIC: (40.0) %
[1]; MIC 4 μg/mL, Isolates producing CTX-M Group 1 (276)
  cumulative % of isolates at MIC: (28.3) %
[1]; MIC 4 μg/mL, Isolates producing CTX-M Group 9 (92)
  cumulative % of isolates at MIC: (87.0) %
[1]; MIC 4 μg/mL, Isolates producing SHV ESBL (18)
  cumulative % of isolates at MIC: (66.7) %
[1]; MIC 4 μg/mL, K pneumoniae (126)
  cumulative % of isolates at MIC: (31.7) %
[1]; MIC 8 μg/mL, All CTX-M-producing E. coli (294)
  cumulative % of isolates at MIC: (66.3) %
[1]; MIC 8 μg/mL, All CTX-M-producing K pneumoniae (71)
  cumulative % of isolates at MIC: (56.3) %
[1]; MIC 8 μg/mL, All CTX-M-producing isolates (365)
  cumulative % of isolates at MIC: (64.4) %
[1]; MIC 8 μg/mL, E. coli (385)
  cumulative % of isolates at MIC: (56.9) %
[1]; MIC 8 μg/mL, Isolates producing CTX-M Group 1 (276)
  cumulative % of isolates at MIC: (55.8) %
[1]; MIC 8 μg/mL, Isolates producing CTX-M Group 9 (92)
  cumulative % of isolates at MIC: (89.1) %
[1]; MIC 8 μg/mL, Isolates producing SHV ESBL (18)
  cumulative % of isolates at MIC: (72.2) %
[1]; MIC 8 μg/mL, K pneumoniae (126)
  cumulative % of isolates at MIC: (53.2) %
[1]; MIC 16 μg/mL, All CTX-M-producing E. coli (294)
  cumulative % of isolates at MIC: (83.0) %
[1]; MIC 16 μg/mL, All CTX-M-producing K pneumoniae (71)
  cumulative % of isolates at MIC: (73.2) %
[1]; MIC 16 μg/mL, All CTX-M-producing isolates (365)
  cumulative % of isolates at MIC: (81.1) %
[1]; MIC 16 μg/mL, E. coli (385)
  cumulative % of isolates at MIC: (73.0) %
[1]; MIC 16 μg/mL, Isolates producing CTX-M Group 1 (276)
  cumulative % of isolates at MIC: (76.8) %
[1]; MIC 16 μg/mL, Isolates producing CTX-M Group 9 (92)
  cumulative % of isolates at MIC: (92.4) %
[1]; MIC 16 μg/mL, Isolates producing SHV ESBL (18)
  cumulative % of isolates at MIC: (94.4) %
[1]; MIC 16 μg/mL, K pneumoniae (126)
  cumulative % of isolates at MIC: (69.0) %
[1]; MIC >[…] μg/mL, All CTX-M-producing E. coli (294)
  cumulative % of isolates at MIC: (100.0) %
[1]; MIC >[…] μg/mL, All CTX-M-producing K pneumoniae (71)
  cumulative % of isolates at MIC: (100.0) %
[1]; MIC >[…] μg/mL, All CTX-M-producing isolates (365)
  cumulative % of isolates at MIC: (100.0) %
[1]; MIC >[…] μg/mL, E. coli (385)
  cumulative % of isolates at MIC: (100.0) %
[1]; MIC >[…] μg/mL, Isolates producing CTX-M Group 1 (276)
  cumulative % of isolates at MIC: (100.0) %
[1]; MIC >[…] μg/mL, Isolates producing CTX-M Group 9 (92)
  cumulative % of isolates at MIC: (100.0) %
[1]; MIC >[…] μg/mL, Isolates producing SHV ESBL (18)
  cumulative % of isolates at MIC: (100.0) %
[1]; MIC >[…] μg/mL, K pneumoniae (126)
  cumulative % of isolates at MIC: (100.0) %
[1]; MIC […] μg/mL, All CTX-M-producing E. coli (294)
  cumulative % of isolates at MIC: (91.8) %
[1]; MIC […] μg/mL, All CTX-M-producing K pneumoniae (71)
  cumulative % of isolates at MIC: (83.1) %
[1]; MIC […] μg/mL, All CTX-M-producing isolates (365)
  cumulative % of isolates at MIC: (90.1) %
[1]; MIC […] μg/mL, E. coli (385)
  cumulative % of isolates at MIC: (82.1) %
[1]; MIC […] μg/mL, Isolates producing CTX-M Group 1 (276)
  cumulative % of isolates at MIC: (87.7) %
[1]; MIC […] μg/mL, Isolates producing CTX-M Group 9 (92)
  cumulative % of isolates at MIC: (95.7) %
[1]; MIC […] μg/mL, Isolates producing SHV ESBL (18)
  cumulative % of isolates at MIC: (94.4) %
[1]; MIC […] μg/mL, K pneumoniae (126)
  cumulative % of isolates at MIC: (79.4) %
[1]; MIC […], Enterobacteriaceae (511)
  cumulative % of isolates at MIC: (5.1) %
CTX-M-15 Strain; read-out: MIC CTX-M-15 Strain − CLV
  MIC: 16 µg/mL
CTX-M-15 Strain; with CLV
  MIC CTX-M-15 Strain + CLV: 1 µg/mL
[2]; AEAE1027 (CTX-M-14)
  MIC: 1 µg/mL
[2]; AEAE1029 (CTX-M-15)
  MIC: 8 µg/mL
CTX-M-15; direct-turnover assay
  concentration saturating CTX-M-15 activity: did not saturate CTX-M-15 activity
CTX-M-15; read-out: KM (95% CI), CTX-M-15-mediated hydrolysis
  Km: > 100 µM
CTX-M-15; [7]
  fold slower degradation by CTX-M-15 than cefixime: about 2.5 fold
  fold slower degradation by CTX-M-15 than cefotaxime: ~70 fold
  fold slower degradation by CTX-M-15 than cefpodoxime: ~67 fold
[3]
  MIC: 0.25 µg/mL (≈ 0.609 µM)
[4]; AKP1162 (SHV-12, CTX-M-15)
  MIC: 32 µg/mL (≈ 78 µM)
[4]; AKPN1159 (SHV-12)
  MIC: 4 µg/mL (≈ 9.75 µM)
[5]; AECO1156, 2 h
  Change in Log10 CFU/mL From Inoculum (0 hr): 0.33 Log10 CFU/mL
[5]; AECO1156, 4 h
  Change in Log10 CFU/mL From Inoculum (0 hr): 2.35 Log10 CFU/mL
[5]; AECO1156, 6 h
  Change in Log10 CFU/mL From Inoculum (0 hr): 3.28 Log10 CFU/mL
[5]; AECO1156, 24 h
  Change in Log10 CFU/mL From Inoculum (0 hr): 3.98 Log10 CFU/mL
[5]; AECO1157, 2 h
  Change in Log10 CFU/mL From Inoculum (0 hr): 1.02 Log10 CFU/mL
[5]; AECO1157, 4 h
  Change in Log10 CFU/mL From Inoculum (0 hr): 2.88 Log10 CFU/mL
[5]; AECO1157, 6 h
  Change in Log10 CFU/mL From Inoculum (0 hr): 3.29 Log10 CFU/mL
[5]; AECO1157, 24 h
  Change in Log10 CFU/mL From Inoculum (0 hr): 3.63 Log10 CFU/mL
[5]; AECO1162, 2 h
  Change in Log10 CFU/mL From Inoculum (0 hr): −0.36 Log10 CFU/mL
[5]; AECO1162, 4 h
  Change in Log10 CFU/mL From Inoculum (0 hr): 0.17 Log10 CFU/mL
[5]; AECO1162, 6 h
  Change in Log10 CFU/mL From Inoculum (0 hr): 2.19 Log10 CFU/mL
[5]; AECO1162, 24 h
  Change in Log10 CFU/mL From Inoculum (0 hr): 3.46 Log10 CFU/mL
[5]; AECO1166, 2 h
  Change in Log10 CFU/mL From Inoculum (0 hr): −1.30 Log10 CFU/mL
[5]; AECO1166, 4 h
  Change in Log10 CFU/mL From Inoculum (0 hr): 0.58 Log10 CFU/mL
[5]; AECO1166, 6 h
  Change in Log10 CFU/mL From Inoculum (0 hr): 2.24 Log10 CFU/mL
[5]; AECO1166, 24 h
  Change in Log10 CFU/mL From Inoculum (0 hr): 3.71 Log10 CFU/mL
[6]; ACFR1034 (CTX-M-15, TEM-OSBL)
  MIC: > 64 µg/mL
[6]; ACFR1035 (CTX-M-3, TEM-OSBL)
  MIC: 16 µg/mL
